Data from patent publication US11351185B2, “Use of isovalerylspiramycins as anti-cancer agents to inhibit metastasis” (priority 2020, dated 2022).
Entries after “also recorded” stand apart in the source; their conditions may differ.

Tests used:
[1] = Preclinical observation on doubled i.p. dose; type: in vivo; details: mice; one week of continuing administration
Experimental: Furthermore, the medicament is administered in “a therapeutically effective amount,” i.e., in a single dose or in multiple, divided subdoses at a suitable interval, e.g., two, three or more subdoses over a day or another appropriate schedule, to a prescribed total amount of active, such that metastasis is inhibited in the subject. Like the dose schedule, the effective amount of medicament will depend on a variety of factors, including the age and condition of the subject, the nature and extent of the cancerous condition, any contraindications, and the pharmacokinetic and pharmacodynamic characteristics of the medicament. For example, based on an accepted guide to animal-to-human dose conversion, see Nair R. Jacob, J. Basic. Clin. Pharm.

[2] = system: in vivo cancer parameters; details: animal models; cited from earlier work
[3] = system: pre-rRNA (POL1 transcript); test: pre-rRNA transcription, real-time RT-PCR; type: cell-based; details: LN229 cells
Experimental: (§1) SELH is localized in the nucleolus, which is a sensor of oxidative stress. Yang et al., Nature communications 7: 13599 (2016); Novoselov et al., J. Biol. Chem. 282: 11960 (2007). […] JNK2 activation by oxidative stress inactivated RNA polymerase I (POL1) transcription factor TIF1A in the nucleoli to down-regulate rRNA synthesis. Mayer et al., Genes Dev. 19: 933 (2005). To investigate whether the ribosomal biogenesis was disrupted by ISP I, pre-rRNA transcription was evaluated using real-time RT-PCR analysis in LN229 cells. […] To examine the mechanisms by which ISP I disrupts POL1 transcription, the inventors initially evaluated JNK2 activity and the overall state of the transcription machinery in ISP I-treated LN229 cells.

human cancer lines = details: MCF-7, MDA-MB-231, HepG2, A549, H460, H1299, 786-0, 769-P, U251, A172, U937, HeLa, PC3, PANC-1, TE-1, SGC-7901, HT-29, HL-60; cited from earlier work
786-O tumors = test: 786-O subcutaneous xenograft mouse model; type: in vivo, NSG mice; details: 35 mg/kg i.p. daily; 18 days after treatment
Experimental: For subcutaneous xenografts, NSG mice (6-8 weeks old) from the NCI-Frederick animal facility and Jackson Lab (Bar Harbor, Me. USA) were injected with 5×10^6 to 1×10^7 cells subcutaneously in the flank. One week later, the tumor-bearing mice were randomly assigned to different groups and made the tumor volume baseline equivalent and treated with normal saline or Zenomycin (35 mg/kg) everyday intraperitoneally. Tumors were measured using a caliper, and volume was calculated.

[4] = system: SELH, Nucleolin, Fibrillarin, POL1, NPM, p53; test: Nucleolar stress response, immunofluorescence and western blot; type: cell-based; details: LN229
Experimental: as §1
(§2) Western blotting was performed to detect the protein expression level of SELH, NRF2 and γH2AX regulated by ISP I. The cells were lysed by RIPA buffer from ThermoFisher Scientific, and the concentration was measured using DC Protein Assay, a Bio-Rad product. Equal amounts of protein of each sample were loaded for gel electrophoresis and were transferred to nitrocellulose membrane, blocked and incubated overnight at 4° C. with primary antibodies. Then the membranes were washed with TBST (3 times, 10 min each). Exposure, imaging, and data analysis were done using a KwikQuant Imager system, a product of Kindle Biosciences (Greenwich, Conn. USA). The following antibodies were used: anti-phospho-histone H2A.X (Ser139), anti-NRF2 (Cell Signaling, Danvers, Mass. USA), anti-SELH (Abcam, Cambridge, Mass. USA), anti-GAPDH (Millipore, Temecula, Calif. USA).
For immunofluorescence assay, cells were seeded on a 35-mm confocal dish with glass bottom and were treated with ISP I. After 24 hours, cells were fixed with 4% paraformaldehyde and were labeled with primary antibodies against γH2AX overnight at 4° C. Then the cells were incubated with secondary antibody conjugated with Alexa Fluor-594 (Invitrogen), followed by staining with DAPI for nuclei. Images were obtained using Zeiss LSM 780 microscopy (Carl Zeiss, Oberkochen Germany).

SELH = target: T1, SELH (Homo sapiens, UniProt Q8IZQ5); test: Western blot of SELH protein level in treated cells; type: cell-based; design: endogenous in cells; host or cells: LN229, 786-O, T98G, U118, U251, RCC4; details: for SELH protein expression, different concentrations: LN229 cells, 24 hours post-treatment
T1 sequence (Q8IZQ5 1-122): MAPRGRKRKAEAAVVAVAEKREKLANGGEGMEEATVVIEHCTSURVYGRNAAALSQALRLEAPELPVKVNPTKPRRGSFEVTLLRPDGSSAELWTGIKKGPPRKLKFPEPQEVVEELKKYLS
Experimental: A cycloheximide (CHX) chase assay was completed to assess ISP I's effect on SELH protein degradation.
as §2

COC1C(O)CC(=O)OC(C)CC=CC=CC(OC2CCC(N(C)C)C(C)O2)C(C)CC(CC=O)C1OC1OC(C)C(OC2CC(C)(O)C(OC(=O)CC(C)C)C(C)O2)C(N(C)C)C1O (stereo not drawn) [ISP I, 4″-isolvalerylspiramycin I]
adverse effect on doubling of the i.p. dose [1]: severe diarrhea
in vivo cancer parameters such as tumor growth rate and relative tumor volume [2]: reduction
pre-rRNA transcription [3]: decreased pre-rRNA transcription in a dose-dependent manner; also recorded: reduced Pre-rRNA (PoL1 transcript) in a dose-dependent manner
effect on proliferation in vitro of human cancer lines (human cancer lines): inhibitory effect
tumor size, weight and burden (786-O tumors): reduced 786-O tumor burden; also recorded: significantly reduced tumor size and weight
NPM expression (western blot) [4]: decreased nucleolar protein, NPM and P53 expression in a dose dependent manner; also recorded: reduced NMP expression
SELH expression in the nucleolus (immunofluorescence) ([4]; 8 h, 10 μg/mL): loss and reduction of SELH expression in the nucleolus
nucleolar labeling of Nucleolin, Fibrillarin, POL1, NPM (immunofluorescence) ([4]; 8 h, 10 μg/mL): loss and dispersion of nucleolar proteins (Neucleolin, Fibrillarin, POL1, NPM)
SELH protein levels in RCC cell lines (SELH; 786-O and RCC4, 10 μg/ml, 24 hours): decreased SELH levels; also recorded: inhibitory effect on SELH expression also was confirmed
SELH protein expression, different concentrations (SELH): reduced SELH protein expression in LN229 cells in a dose-dependent manner
SELH protein expression, different concentrations (SELH; listed as ISP 1): decline, in a dose-dependent manner, of SELH levels
SELH protein levels in glioblastoma cell lines (SELH; T98G, U118, LN229, U251, 10 μg/mL, 24 hours): decreased SELH levels; also recorded: inhibitory effect on SELH expression also was confirmed
